Tests used:
Type in all cases: cell-based
A549 cells [1] = test system: A549 cells
A549 cells [2] = test system: A549 cells; remark: listed apart in the source
A549 cells [3] = test system: A549 cells; remark: listed apart in the source

Substance: DRFFFKCIYRRLKYGLKRRPST [Jilin-2004(H5N1)-M2-44-65 mut2]
- ability to carry small RNA into cells compared with the transfection reagent RNAiMax group, qPCR (A549 cells [1]): stronger than the transfection reagent RNAiMax group

Substance: RLFFKCIYRRLTYGLKRG [Jilin-2004(H5N1)-M2-45-62 mut56]
- ability to carry small RNA into cells compared with the transfection reagent RNAiMax group, qPCR (A549 cells [1]): stronger than the transfection reagent RNAiMax group

Substance: RRFFFKCFFRRFKFGLKRGPST [Jilin-2004(H5N1)-M2-44-65 mut7]
- ability to carry small RNA into cells compared with the transfection reagent RNAiMax group, qPCR (A549 cells [1]): stronger than the transfection reagent RNAiMax group

Substance: RLFFKCIYRRLKYGLKRG [A/HongKong/97/98(H5N1)-M2-N-M-AH(45-62)]
- cell entry of rhodamine-labeled polypeptide (A549 cells [2]): could all enter A549 cells

Substance: DRLFFKCIYRRRKRGLKR [Jilin-2004(H5N1)-M2-44-61 mut12]
- ability to carry small RNA into cells compared with the transfection reagent RNAiMax group, qPCR (A549 cells [1]): stronger than the transfection reagent RNAiMax group

Substance: KYGLKRGPSTEGVPESMR [FITC-Jilin-2004(H5N1)-M2-56-73]
- cell entry signal / cell entry properties (A549 cells [3]): did not show cell entry properties

Substance: RFFFKCFYRRLKYGLKRG [Jilin-2004(H5N1)-M2-45-62 mut8]
- ability to carry small RNA into cells compared with the transfection reagent RNAiMax group, qPCR (A549 cells [1]): stronger than the transfection reagent RNAiMax group

Substance: RLFFKCIYRRLKYGAKRG [Jilin-2004(H5N1)-M2-45-62 mut59]
- ability to carry small RNA into cells compared with the transfection reagent RNAiMax group, qPCR (A549 cells [1]): stronger than the transfection reagent RNAiMax group

Substance: DRLFFICIYRRLKYGLKR [Jilin-2004(H5N1)-M2-44-61 mut6]
- ability to carry small RNA into cells compared with the transfection reagent RNAiMax group, qPCR (A549 cells [1]): stronger than the transfection reagent RNAiMax group

Substance: RRLKYGLKRGPSTEGVPE [FITC-Jilin-2004(H5N1)-M2-53-70]
- cell entry signal / cell entry properties (A549 cells [3]): did not show cell entry properties

Substance: GPSTEGVPESMREEYRQE [FITC-Jilin-2004(H5N1)-M2-62-79]
- cell entry signal / cell entry properties (A549 cells [3]): did not show cell entry properties

Substance: RLFFKCIYSRLKYGLKRG [Jilin-2004(H5N1)-M2-45-62 mut53]
- ability to carry small RNA into cells compared with the transfection reagent RNAiMax group, qPCR (A549 cells [1]): stronger than the transfection reagent RNAiMax group

Substance: MSLLTEVETPTRNGWECRCSDSSD [Jilin-2004(H5N1)-M2-1-24]
- cell entry signal / cell entry properties (A549 cells [3]): no cell entry signal was detected
- ability to carry small RNA (PGY-sRNA-26) into cells, qPCR (A549 cells [1]): Only the polypeptide Jilin-2004(H5N1)-M2-45-62 had the ability to carry small RNA into the cells

Substance: RLFFKCAYRRLKYGLKRG [Jilin-2004(H5N1)-M2-45-62 mut51]
- ability to carry small RNA into cells compared with the transfection reagent RNAiMax group, qPCR (A549 cells [1]): stronger than the transfection reagent RNAiMax group
- cell-penetrating peptide function compared with the parent polypeptide (confocal imaging) (A549 cells [2]): stronger than that of the parent Jilin-2004(H5N1)-M2-45-62 polypeptide

Substance: DRLFFKCIYRRLKYGLII [Jilin-2004(H5N1)-M2-44-61 mut16]
- ability to carry small RNA into cells compared with the transfection reagent RNAiMax group, qPCR (A549 cells [1]): stronger than the transfection reagent RNAiMax group

Substance: RLFSKSIYR1FKHGLKRG [Caledonia/20/1999(H1N1)-M2-N-M-AH(45-62)]
- cell entry of rhodamine-labeled polypeptide (A549 cells [2]): could all enter A549 cells

Substance: RLFFRRIYRRLRYRLRRG [Jilin-2004(H5N1)-M2-45-62 mut5]
- ability to carry small RNA into cells compared with the transfection reagent RNAiMax group, qPCR (A549 cells [1]): stronger than the transfection reagent RNAiMax group
- cell-penetrating peptide function compared with the parent polypeptide (confocal imaging) (A549 cells [2]): stronger than that of the parent Jilin-2004(H5N1)-M2-45-62 polypeptide

Substance: RLFFRRIYRRLRYGLKRG [Jilin-2004(H5N1)-M2-45-62 mut3]
- cell-penetrating peptide function compared with the parent polypeptide (confocal imaging) (A549 cells [2]): stronger than that of the parent Jilin-2004(H5N1)-M2-45-62 polypeptide

Substance: LKRGPSTEGVPESMREEY [FITC-Jilin-2004(H5N1)-M2-59-76]
- cell entry signal / cell entry properties (A549 cells [3]): did not show cell entry properties

Substance: DRLFFKCIYRRLKYGRKR [Jilin-2004(H5N1)-M2-44-61 mut13]
- cell-penetrating peptide function compared with the parent polypeptide (A549 cells [3]): stronger than that of the parent Jilin-2004(H5N1)-M2-44-61 polypeptide

Substance: RFFFRRFFRRFRFRFRRR [Jilin-2004(H5N1)-M2-45-62 mut13]
- cell-penetrating peptide function compared with the parent polypeptide (confocal imaging) (A549 cells [2]): stronger than that of the parent Jilin-2004(H5N1)-M2-45-62 polypeptide

Substance: RRLFFKCIYRRLKYGLKR [Jilin-2004(H5N1)-M2-44-61 mut1]
- ability to carry small RNA into cells compared with the transfection reagent RNAiMax group, qPCR (A549 cells [1]): stronger than the transfection reagent RNAiMax group

Substance: DRRRRKCRRRRRKYGRKR [Jilin-2004(H5N1)-M2-44-61 mut10]
- ability to carry small RNA into cells compared with the transfection reagent RNAiMax group, qPCR (A549 cells [1]): stronger than the transfection reagent RNAiMax group

Substance: DRLFFKIIYRRLKYGLKR [Jilin-2004(H5N1)-M2-44-61 mut8]
- ability to carry small RNA into cells compared with the transfection reagent RNAiMax group, qPCR (A549 cells [1]): stronger than the transfection reagent RNAiMax group

Substance: RLFFRCIYRRLKYGLKRG [Jilin-2004(H5N1)-M2-45-62 mut1]
- ability to carry small RNA into cells compared with the transfection reagent RNAiMax group, qPCR (A549 cells [1]): stronger than the transfection reagent RNAiMax group

Substance: KRGPSTEGVPESMREEYREEQQN [Caledonia/20/1999(H1N1)-M2-N-M-AH(60-82)]
- cell entry of rhodamine-labeled polypeptide (A549 cells [2]): did not enter the cells

Substance: DRRFFKCIYRRLKYGLKR [Jilin-2004(H5N1)-M2-44-61 mut4]
- ability to carry small RNA into cells compared with the transfection reagent RNAiMax group, qPCR (A549 cells [1]): stronger than the transfection reagent RNAiMax group

Substance: RLFFKCIKRRLKYGLKRG [Jilin-2004(H5N1)-M2-45-62 mut52]
- ability to carry small RNA into cells compared with the transfection reagent RNAiMax group, qPCR (A549 cells [1]): stronger than the transfection reagent RNAiMax group

Substance: RLFFKCIYRRLKYGLKTG [Jilin-2004(H5N1)-M2-45-62 mut61]
- ability to carry small RNA into cells compared with the transfection reagent RNAiMax group, qPCR (A549 cells [1]): stronger than the transfection reagent RNAiMax group
- cell-penetrating peptide function compared with the parent polypeptide (confocal imaging) (A549 cells [2]): stronger than that of the parent Jilin-2004(H5N1)-M2-45-62 polypeptide

Substance: RLFFRRIYRRLRYRLRRR [Jilin-2004(H5N1)-M2-45-62 mut6]
- cell-penetrating peptide function compared with the parent polypeptide (confocal imaging) (A549 cells [2]): stronger than that of the parent Jilin-2004(H5N1)-M2-45-62 polypeptide

Substance: DRLFFRRIYRRLKYGLKRGPST [Jilin-2004(H5N1)-M2-44-65 mut23]
- ability to carry small RNA into cells compared with the transfection reagent RNAiMax group, qPCR (A549 cells [1]): stronger than the transfection reagent RNAiMax group

Substance: DRFFFKRIFRRLKYRLKRRPST [Jilin-2004(H5N1)-M2-44-65 mut10]
- cell-penetrating peptide function compared with the parent polypeptide (A549 cells [3]): stronger than that of the parent Jilin-2004(H5N1)-M2-44-65 polypeptide

Substance: DRFFFKCIYRRLKYGLKRGPST [Jilin-2004(H5N1)-M2-44-65 mut1]
- ability to carry small RNA into cells compared with the transfection reagent RNAiMax group, qPCR (A549 cells [1]): stronger than the transfection reagent RNAiMax group

Substance: DRLFFRRIYRRLRYRLRRRPST [Jilin-2004(H5N1)-M2-44-65 mut24]
- cell-penetrating peptide function compared with the parent polypeptide (A549 cells [3]): stronger than that of the parent Jilin-2004(H5N1)-M2-44-65 polypeptide

Substance: RLIFKCIYRRLKYGLKRG [Jilin-2004(H5N1)-M2-45-62 mut47]
- ability to carry small RNA into cells compared with the transfection reagent RNAiMax group, qPCR (A549 cells [1]): stronger than the transfection reagent RNAiMax group

Substance: SLFFKCIYRRLKYGLKRG [Jilin-2004(H5N1)-M2-45-62 mut45]
- ability to carry small RNA into cells compared with the transfection reagent RNAiMax group, qPCR (A549 cells [1]): stronger than the transfection reagent RNAiMax group
- cell-penetrating peptide function compared with the parent polypeptide (confocal imaging) (A549 cells [2]): stronger than that of the parent Jilin-2004(H5N1)-M2-45-62 polypeptide

Substance: RLFFRRIYRRLRYRLKRG [Jilin-2004(H5N1)-M2-45-62 mut4]
- cell-penetrating peptide function compared with the parent polypeptide (confocal imaging) (A549 cells [2]): stronger than that of the parent Jilin-2004(H5N1)-M2-45-62 polypeptide

Substance: KRGPSTEGVPESMREEYRQEQQS [Jilin-2004(H5N1)-M2-60-82]
- ability to carry small RNA (PGY-sRNA-26) into cells, qPCR (A549 cells [1]): Only the polypeptide Jilin-2004(H5N1)-M2-45-62 had the ability to carry small RNA into the cells

Substance: DRFFFKCIFRRLKFGLKRGPST [Jilin-2004(H5N1)-M2-44-65 mut5]
- ability to carry small RNA into cells compared with the transfection reagent RNAiMax group, qPCR (A549 cells [1]): stronger than the transfection reagent RNAiMax group

Substance: RLFFKCIYRRAKYGLKRG [Jilin-2004(H5N1)-M2-45-62 mut55]
- ability to carry small RNA into cells compared with the transfection reagent RNAiMax group, qPCR (A549 cells [1]): stronger than the transfection reagent RNAiMax group

Substance: RRLFFKCIYRRLKYGLKRGPST [Jilin-2004(H5N1)-M2-44-65 mut15]
- ability to carry small RNA into cells compared with the transfection reagent RNAiMax group, qPCR (A549 cells [1]): stronger than the transfection reagent RNAiMax group

Substance: TEGVPESMREEYRQEQQS [FITC-Jilin-2004(H5N1)-M2-65-82]
- cell entry signal / cell entry properties (A549 cells [3]): did not show cell entry properties

Substance: RLFFRRIYRRLKYGLKRG [Jilin-2004(H5N1)-M2-45-62 mut2]
- cell-penetrating peptide function compared with the parent polypeptide (confocal imaging) (A549 cells [2]): stronger than that of the parent Jilin-2004(H5N1)-M2-45-62 polypeptide

Substance: RAFFKCIYRRLKYGLKRG [Jilin-2004(H5N1)-M2-45-62 mut46]
- ability to carry small RNA into cells compared with the transfection reagent RNAiMax group, qPCR (A549 cells [1]): stronger than the transfection reagent RNAiMax group

Substance: PLVVAASIIGILHLILWIL [Jilin-2004(H5N1)-M2-25-43]
- cell entry signal / cell entry properties (A549 cells [3]): no cell entry signal was detected
- ability to carry small RNA (PGY-sRNA-26) into cells, qPCR (A549 cells [1]): Only the polypeptide Jilin-2004(H5N1)-M2-45-62 had the ability to carry small RNA into the cells

Substance: DRFFFKCFYRRLK [Jilin-2004(H5N1)-M2-44-56 mut9]
- cell-penetrating peptide function compared with the parent polypeptide (A549 cells [3]): enhanced compared to the parent polypeptide

Substance: DRFFFKRIFRRLKFRLKRRPST [Jilin-2004(H5N1)-M2-44-65 mut11]
- ability to carry small RNA into cells compared with the transfection reagent RNAiMax group, qPCR (A549 cells [1]): stronger than the transfection reagent RNAiMax group

Substance: KRGPSTAGVPESMREEYRQEQQN [A/HongKong/97/98(H5N1)-M2-N-M-AH(60-82)]
- cell entry of rhodamine-labeled polypeptide (A549 cells [2]): did not enter the cells

Substance: RLFFKIIYRRLKYGLKRG [Jilin-2004(H5N1)-M2-45-62 mut50]
- cell-penetrating peptide function compared with the parent polypeptide (confocal imaging) (A549 cells [2]): stronger than that of the parent Jilin-2004(H5N1)-M2-45-62 polypeptide

Substance: DRKRRKCKYRRKKYGRKR [Jilin-2004(H5N1)-M2-44-61 mut14]
- cell-penetrating peptide function compared with the parent polypeptide (A549 cells [3]): stronger than that of the parent Jilin-2004(H5N1)-M2-44-61 polypeptide
- ability to carry small RNA into cells compared with the transfection reagent RNAiMax group, qPCR (A549 cells [1]): stronger than the transfection reagent RNAiMax group

Substance: DRFFFKCFFRRFKFGLKRGPST [Jilin-2004(H5N1)-M2-44-65 mut6]
- ability to carry small RNA into cells compared with the transfection reagent RNAiMax group, qPCR (A549 cells [1]): stronger than the transfection reagent RNAiMax group

Substance: ERGLQRRRFVQNALN [NC, reference compound]
- cell entry at all time points (A549 cells [3]): no entry of polypeptides was observed

Reference: US20220169680A1 (priority 2018, published 2022)
